Assay results: US10711006B2, “Selective Bruton's tyrosine kinase inhibitor and use thereof” (HANGZHOU HERTZ PHARMACEUTICAL CO., LTD., priority 2016, dated 2020)

Key:
[1] = tested on: diffuse giant B-cell lymphoma (OCI-LY10); assay: In-vitro tumor cell proliferation inhibition (CCK-8), OCI-LY10; details: Homo sapiens, OCI-Ly10, 72 h, read-out: Tumor cell proliferation inhibitory activity (IC50, nM) OCI-LY10
[2] = molecular target: FLT3 (Homo sapiens (Human), UniProt P36888); assay: Kinase selectivity experiment, FLT3; assay type: biochemical; details: read-out: Inhibitory activity against FLT3 (IC50)
Sequence of FLT3 (P36888 27-993, species assumed): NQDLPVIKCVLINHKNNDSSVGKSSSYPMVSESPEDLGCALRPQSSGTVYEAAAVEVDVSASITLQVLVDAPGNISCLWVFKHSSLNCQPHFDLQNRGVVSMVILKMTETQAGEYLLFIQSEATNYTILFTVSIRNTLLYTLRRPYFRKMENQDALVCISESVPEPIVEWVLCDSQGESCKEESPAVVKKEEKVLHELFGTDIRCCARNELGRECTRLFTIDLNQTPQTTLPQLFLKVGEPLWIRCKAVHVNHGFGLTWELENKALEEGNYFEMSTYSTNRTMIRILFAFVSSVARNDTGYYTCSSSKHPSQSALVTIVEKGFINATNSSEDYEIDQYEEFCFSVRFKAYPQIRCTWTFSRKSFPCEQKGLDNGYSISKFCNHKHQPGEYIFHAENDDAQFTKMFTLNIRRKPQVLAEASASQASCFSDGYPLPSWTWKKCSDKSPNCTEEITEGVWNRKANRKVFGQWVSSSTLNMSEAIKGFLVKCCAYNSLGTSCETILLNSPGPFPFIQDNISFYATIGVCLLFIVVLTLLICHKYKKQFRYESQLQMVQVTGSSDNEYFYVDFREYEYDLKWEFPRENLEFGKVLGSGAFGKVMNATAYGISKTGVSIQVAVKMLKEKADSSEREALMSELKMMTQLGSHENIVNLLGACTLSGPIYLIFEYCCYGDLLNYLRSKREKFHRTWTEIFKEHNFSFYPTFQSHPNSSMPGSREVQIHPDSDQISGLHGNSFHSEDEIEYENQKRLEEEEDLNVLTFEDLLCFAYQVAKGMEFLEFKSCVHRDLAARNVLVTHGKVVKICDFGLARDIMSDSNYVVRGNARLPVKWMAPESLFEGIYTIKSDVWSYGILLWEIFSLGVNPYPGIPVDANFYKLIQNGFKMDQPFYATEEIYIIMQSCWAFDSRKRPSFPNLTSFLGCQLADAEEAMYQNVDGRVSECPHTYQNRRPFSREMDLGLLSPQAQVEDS
Description: (§1) A 1× kinase base buffer and a reaction stop buffer for respective kinases in the experiment were prepared as required.
(§2) Preparation of Compounds to be Tested:
(§3) 2) diluting each compound at a 5-fold concentration gradient in a 96-well plate to 6 to 7 concentrations and ensuring that the drug volume in each well was 10 μl; and at the same time adding 100 μl of DMSO to prepare a blank control group and also preparing a negative control group without the enzyme substrate; and
(§4) 3) preparing another 96-well plate, adding 10 μl of each of the above compounds to 90 μl of the 1× kinase base buffer and mixing for 10 minutes to be uniform.
(§5) Preparation of the Plate to be Tested:
(§6) 1) 5 μl of the mixed solution prepared as above in the 96-well plate was taken and transferred to a 384-well plate, with two replicate wells for each compound.
(§7) 1) Preparing a 2.5× kinase solution and adding a corresponding 1× kinase base buffer;
(§8) 2) preparing a 2.5× polypeptide solution and adding FAM-labeled polypeptide and ATP in the 1× kinase base buffer; and
(§9) 3) adding 10 μl of 2.5× kinase solution to a 384-well plate to be tested, placing in a room-temperature environment for 10 minutes, and then adding 10 μl of the 2.5× polypeptide solution, reacting at 28° C. for 1 hour, and then adding 25 μl of a reaction stop buffer.
(§10) The Caliper program reads the plate and uses the data to obtain the IC50 values of the corresponding compounds against kinases.

[3] = molecular target: BTK Kinase (Homo sapiens (Human), UniProt Q06187); assay: In-vitro Btk kinase inhibitory activity assay; assay type: biochemical
Sequence of BTK Kinase (Q06187 whole entry): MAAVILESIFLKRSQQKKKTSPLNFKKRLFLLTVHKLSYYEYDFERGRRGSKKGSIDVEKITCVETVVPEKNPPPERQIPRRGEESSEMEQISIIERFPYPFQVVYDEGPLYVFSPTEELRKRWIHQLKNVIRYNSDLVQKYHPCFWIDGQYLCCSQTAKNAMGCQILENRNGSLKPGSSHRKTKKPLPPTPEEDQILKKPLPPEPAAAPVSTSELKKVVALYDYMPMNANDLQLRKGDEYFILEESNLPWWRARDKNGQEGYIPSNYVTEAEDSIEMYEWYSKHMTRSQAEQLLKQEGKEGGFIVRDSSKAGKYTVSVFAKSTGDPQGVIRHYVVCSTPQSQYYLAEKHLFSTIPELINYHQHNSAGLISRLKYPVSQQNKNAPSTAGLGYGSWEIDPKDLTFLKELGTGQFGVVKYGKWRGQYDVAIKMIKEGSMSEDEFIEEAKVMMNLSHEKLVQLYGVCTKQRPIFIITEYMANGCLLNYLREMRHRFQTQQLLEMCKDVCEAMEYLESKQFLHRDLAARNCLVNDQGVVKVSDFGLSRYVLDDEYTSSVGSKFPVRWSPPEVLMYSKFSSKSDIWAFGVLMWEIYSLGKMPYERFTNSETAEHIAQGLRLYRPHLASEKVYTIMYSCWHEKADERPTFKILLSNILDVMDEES
Description: In-Vitro Btk Kinase Inhibitory Activity Assay for Compounds of the Present Invention:
10 μL of the 50× drug stock solution was added to a 96-well plate and then 90 μL of a 1× Kinase Buffer was added and the 96-well plate was shaken for 10 minutes on a shaker. From each well of the 96-well plate, 5 μL of the drug solution was taken and then transferred to a 384-well plate which was provided with 2 duplicate wells.
Preparation of a 2.5× Kinase Buffer: an enzyme was added to the 1× kinase base buffer.
Prepare a 2.5× oligopeptide solution: FAM-labeled oligopeptide and ATP were added to the 1× kinase base buffer.
10 μL of the 2.5× Kinase Buffer was added to the 384-well plate loaded with 5 μL of the drug solution and incubation was then carried out for 10 minutes at room temperature. 10 μL of the 2.5× oligopeptide solution was added to the 384-well plate and incubation was then carried out for 1 hour at 28° C. The reaction was stopped by adding 25 μL of a stop buffer. The readings were recorded and the inhibition rate of the compound on the enzyme was calculated. The IC50 of BTK kinase was calculated by fitting.

[4] = tested on: Mino subcutaneous xenograft tumor; assay: In-vivo pharmacodynamic study on Mino subcutaneous xenograft tumor models; details: CB17 SCID mice, intragastric, twice a day
Description: In CB17 SCID mice, 0.2 mL of cell suspension containing 5×10^6 Mino cells was subcutaneously inoculated into the right back of each mouse, and when the mean tumor volume reaches approximately 139.94 mm3 (day 26 after inoculation), group administration was started (intragastric administration, twice a day, 14 days in total). Animals were monitored daily for health and mortality, and tumor diameters were measured twice a week using vernier calipers to see if tumor growth could be inhibited, delayed, or cured.

[5] = Oral pharmacokinetic experiment in SD rats; assay type: in vivo; details: for oral bioavailability relative to ibrutinib: oral 10 mg/kg; for AUC0-C(ng/h/mL) / AUC0-t (ng/h/mL) / Cmax / Tmax / half-life: oral (intragastric) 10 mg/kg; for AUC0-C(ng/h/mL) / AUC0-t (ng/h/mL) / bioavailability / Cmax / Tmax / half-life: mean n = 3; for bioavailability / Cmax / Tmax / half-life: rat, plasma; for bioavailability: oral 10 mg/kg vs intravenous 2 mg/kg
Description: SD rats were used as experimental animals and were subjected to intragastric administration in a dose of 10 mg/kg and tail-vein intravenous injection in a dose of 2 mg/kg. The tail-vein blood sampling time points in the intragastric administration were 0.17, 0.33, 0.5, 1, 1.5, 2, 4, 6, 8, 12, and 24 hours; the blood sampling time points in the intravenous administration were 0.05, 0.1, 0.17, 0.5, 1, 2, 4, 6, 8, 12, and 24 hours. 0.3 ml of whole blood was taken, and 0.1 ml of plasma after centrifugation was taken and analyzed by LC-MS.

[6] = molecular target: BLK (Homo sapiens (Human), UniProt P51451); assay: Kinase selectivity experiment, BLK; assay type: biochemical; details: read-out: Inhibitory activity against BLK (IC50)
Sequence of BLK (P51451 whole entry, species assumed): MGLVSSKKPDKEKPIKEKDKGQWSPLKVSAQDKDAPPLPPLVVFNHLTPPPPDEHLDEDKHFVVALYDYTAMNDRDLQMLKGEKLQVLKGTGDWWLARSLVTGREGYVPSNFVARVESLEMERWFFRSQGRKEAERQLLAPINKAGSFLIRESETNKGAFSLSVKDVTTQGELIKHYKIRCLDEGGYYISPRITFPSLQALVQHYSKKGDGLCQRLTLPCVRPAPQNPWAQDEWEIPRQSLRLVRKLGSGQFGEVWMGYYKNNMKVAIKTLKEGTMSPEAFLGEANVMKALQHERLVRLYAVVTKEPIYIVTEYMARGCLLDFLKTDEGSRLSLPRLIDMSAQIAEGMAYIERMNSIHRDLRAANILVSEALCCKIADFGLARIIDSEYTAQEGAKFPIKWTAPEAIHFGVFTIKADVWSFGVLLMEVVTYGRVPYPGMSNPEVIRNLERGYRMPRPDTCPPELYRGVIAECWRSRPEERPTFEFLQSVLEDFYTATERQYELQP
Description: as §1, §2, §3, §4, §5, §6, §7, §8, §9, §10

[7] = tested on: human mantle cell lymphoma (MINO); assay: In-vitro tumor cell proliferation inhibition (CCK-8), MINO; details: 72 h, read-out: Tumor cell proliferation inhibitory activity (IC50, μM) MINO
Description: (§11) The in-vitro antitumor activity assay was carried out on the synthesized compound by using different solid tumors and leukemia cell lines:
(§12) Cell lines: human lung cancer cell (A549), human mantle cell lymphoma (MINO), diffuse giant B-cell lymphoma (OCI-LY10), and human diffuse large B lymphoma (TMD-8).
(§13) Preparation method of the drug: the drug was dissolved in DMSO to make a 10 mM stock solution, and then the stock solution was diluted in a certain ratio to obtain 5 different concentrations (test concentration 100×). In-vitro culture of tumor cells:
(§14) The tumor cells A549, MINO, OCI-LY10, and TMD-8 were seeded in a 96-well plate at 4000 cells/200 μL/well and then incubated overnight at 37° C. in a 5% CO2 cell culture incubator. 2 μL of the compound was added to each well to final concentrations of 50 μM, 10 μM, 2 μM, 0.4 μM, and 0.08 μM and then incubated for 72 hours at 37° C. in a 5% CO2 cell incubator, with DMSO (2%) as a control group. […] Wells loaded with the corresponding amount of cell culture fluid the and CCK-8 solution but no cells were considered as blank controls. The absorbance (OD value) was measured at 450 nm using a microplate reader, and the obtained data was used to calculate IC50.

[8] = tested on: human diffuse large B lymphoma (TMD-8); assay: In-vitro tumor cell proliferation inhibition (CCK-8), TMD-8; details: TMD8, 72 h, read-out: Tumor cell proliferation inhibitory activity (IC50, nM) TMD-8
Description: as §11, §12, §13, §14

[9] = molecular target: HCK (Homo sapiens (Human), UniProt P08631); assay: Kinase selectivity experiment, HCK; assay type: biochemical; details: read-out: Inhibitory activity against HCK (IC50)
Description: as §1, §2, §3, §4, §5, §6, §7, §8, §9, §10

[10] = molecular target: ITK (Homo sapiens (Human), UniProt Q08881); assay: Kinase selectivity experiment, ITK; assay type: biochemical; details: read-out: Inhibitory activity against ITK (IC50)
Sequence of ITK (Q08881 whole entry, species assumed): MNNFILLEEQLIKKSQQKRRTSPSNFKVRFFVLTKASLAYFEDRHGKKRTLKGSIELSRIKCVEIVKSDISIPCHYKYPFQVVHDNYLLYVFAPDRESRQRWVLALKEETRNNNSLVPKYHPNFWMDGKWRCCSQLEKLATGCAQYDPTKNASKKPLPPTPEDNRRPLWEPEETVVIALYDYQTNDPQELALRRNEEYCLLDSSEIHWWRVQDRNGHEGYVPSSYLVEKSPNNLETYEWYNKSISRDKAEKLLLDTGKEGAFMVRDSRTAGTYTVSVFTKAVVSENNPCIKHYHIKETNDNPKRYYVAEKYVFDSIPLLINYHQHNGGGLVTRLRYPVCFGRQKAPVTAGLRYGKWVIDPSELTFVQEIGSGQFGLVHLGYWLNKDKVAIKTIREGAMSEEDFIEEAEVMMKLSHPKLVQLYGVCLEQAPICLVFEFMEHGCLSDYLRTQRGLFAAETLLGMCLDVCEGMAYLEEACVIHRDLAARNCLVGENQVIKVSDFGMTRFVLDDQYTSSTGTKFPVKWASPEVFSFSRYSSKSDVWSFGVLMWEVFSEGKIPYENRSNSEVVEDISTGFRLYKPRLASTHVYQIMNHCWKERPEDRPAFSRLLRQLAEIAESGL
Description: as §1, §2, §3, §4, §5, §6, §7, §8, §9, §10

[11] = molecular target: CSK (Homo sapiens (Human), UniProt P41240); assay: Kinase selectivity experiment, CSK; assay type: biochemical; details: read-out: Inhibitory activity against CSK (IC50)
Sequence of CSK (P41240 whole entry, species assumed): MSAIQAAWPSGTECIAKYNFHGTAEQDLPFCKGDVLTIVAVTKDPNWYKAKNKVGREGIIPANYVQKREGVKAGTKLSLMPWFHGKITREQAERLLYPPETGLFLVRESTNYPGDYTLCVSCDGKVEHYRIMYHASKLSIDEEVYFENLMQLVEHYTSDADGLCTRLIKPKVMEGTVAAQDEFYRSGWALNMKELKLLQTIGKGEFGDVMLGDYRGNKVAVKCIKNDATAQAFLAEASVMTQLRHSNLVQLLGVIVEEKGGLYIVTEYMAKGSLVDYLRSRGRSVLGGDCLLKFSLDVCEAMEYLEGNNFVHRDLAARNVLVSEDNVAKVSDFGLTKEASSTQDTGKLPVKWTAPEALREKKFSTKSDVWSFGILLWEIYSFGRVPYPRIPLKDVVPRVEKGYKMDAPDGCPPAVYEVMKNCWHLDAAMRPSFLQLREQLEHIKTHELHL
Description: as §1, §2, §3, §4, §5, §6, §7, §8, §9, §10

[12] = tested on: human lung cancer cell (A549); assay: In-vitro tumor cell proliferation inhibition (CCK-8), A549; details: A549, 72 h, read-out: Tumor cell proliferation inhibitory activity (IC50, μM) A549
Description: as §11, §12, §13, §14

[13] = molecular target: JAK3 (Homo sapiens (Human), UniProt P52333); assay: Kinase selectivity experiment, JAK3; assay type: biochemical; details: read-out: Inhibitory activity against JAK3 (IC50)
Sequence of JAK3 (P52333 whole entry, species assumed): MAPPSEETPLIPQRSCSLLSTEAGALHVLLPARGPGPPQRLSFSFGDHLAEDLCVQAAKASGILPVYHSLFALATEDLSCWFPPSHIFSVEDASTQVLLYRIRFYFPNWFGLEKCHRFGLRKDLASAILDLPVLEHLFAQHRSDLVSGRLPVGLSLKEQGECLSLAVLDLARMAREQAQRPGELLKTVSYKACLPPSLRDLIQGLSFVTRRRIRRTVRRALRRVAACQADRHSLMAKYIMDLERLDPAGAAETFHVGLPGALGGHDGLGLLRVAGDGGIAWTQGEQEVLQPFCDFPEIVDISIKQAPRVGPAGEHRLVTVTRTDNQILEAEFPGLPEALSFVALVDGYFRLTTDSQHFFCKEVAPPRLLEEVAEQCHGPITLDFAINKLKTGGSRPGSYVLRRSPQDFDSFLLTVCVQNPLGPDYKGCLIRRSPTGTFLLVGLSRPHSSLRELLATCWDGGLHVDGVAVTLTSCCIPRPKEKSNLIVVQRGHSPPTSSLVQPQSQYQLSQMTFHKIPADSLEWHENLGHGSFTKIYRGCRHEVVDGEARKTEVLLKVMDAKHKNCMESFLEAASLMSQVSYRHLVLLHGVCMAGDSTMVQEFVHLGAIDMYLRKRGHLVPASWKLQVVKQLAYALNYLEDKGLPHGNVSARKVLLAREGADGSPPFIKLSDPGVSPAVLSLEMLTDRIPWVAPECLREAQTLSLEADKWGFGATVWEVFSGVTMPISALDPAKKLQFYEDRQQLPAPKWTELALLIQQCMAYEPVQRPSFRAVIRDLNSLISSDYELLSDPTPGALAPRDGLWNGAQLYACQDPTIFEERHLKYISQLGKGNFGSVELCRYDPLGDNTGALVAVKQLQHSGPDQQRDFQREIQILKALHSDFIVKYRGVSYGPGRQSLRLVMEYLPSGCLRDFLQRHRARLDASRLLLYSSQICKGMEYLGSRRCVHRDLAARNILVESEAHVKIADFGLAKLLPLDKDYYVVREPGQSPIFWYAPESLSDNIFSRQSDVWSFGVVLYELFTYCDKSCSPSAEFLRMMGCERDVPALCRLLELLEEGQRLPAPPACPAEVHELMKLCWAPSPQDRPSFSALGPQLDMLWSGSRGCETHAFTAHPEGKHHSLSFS
Description: as §1, §2, §3, §4, §5, §6, §7, §8, §9, §10

[14] = molecular target: FGR (Homo sapiens (Human), UniProt P09769); assay: Kinase selectivity experiment, FGR; assay type: biochemical; details: read-out: Inhibitory activity against FGR (IC50)
Sequence of FGR (P09769 whole entry, species assumed): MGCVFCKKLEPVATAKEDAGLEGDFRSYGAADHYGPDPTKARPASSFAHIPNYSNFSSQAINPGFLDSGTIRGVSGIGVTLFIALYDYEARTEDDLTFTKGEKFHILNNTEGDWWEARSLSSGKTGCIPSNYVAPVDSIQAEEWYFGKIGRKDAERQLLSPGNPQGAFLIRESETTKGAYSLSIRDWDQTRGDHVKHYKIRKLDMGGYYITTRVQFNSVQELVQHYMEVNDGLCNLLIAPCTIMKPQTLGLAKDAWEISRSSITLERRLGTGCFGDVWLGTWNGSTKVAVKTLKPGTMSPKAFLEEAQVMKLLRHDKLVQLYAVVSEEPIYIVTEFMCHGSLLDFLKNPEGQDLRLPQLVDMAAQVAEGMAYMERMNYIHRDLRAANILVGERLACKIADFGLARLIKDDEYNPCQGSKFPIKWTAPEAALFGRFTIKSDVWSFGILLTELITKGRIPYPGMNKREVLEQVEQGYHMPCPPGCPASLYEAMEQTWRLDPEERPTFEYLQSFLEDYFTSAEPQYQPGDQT
Description: as §1, §2, §3, §4, §5, §6, §7, §8, §9, §10

Compound	IC50 [1]	IC50 [2]	IC50 [3]	TGI*(14 days) (%) calculated on the basis of tumor volume [4]	TGI**(14 days) (%) calculated on the basis of tumor weight [4]	oral bioavailability relative to ibrutinib [5]	AUC0-C(ng/h/mL) [5]	AUC0-t (ng/h/mL) [5]	bioavailability [5]	Cmax [5]	Tmax [5]	half-life [5]	IC50 [6]	IC50 [7]	IC50 [8]	IC50 [9]	IC50 [10]	IC50 [11]	IC50 [12]	IC50 [13]	other results
C=CC(=O)N1CC[C@@H](n2nc(-c3ccc(Oc4ccccc4)nc3F)c3c(N)ncnc32)C1 [Compound 24a, (R)-1-(3-(4-amino-3-(2-fluoro-6-phenoxypyridin-3-yl)-1H-pyrazolo[3,4-d]pyrimidin-1-yl)pyrrolidin-1-yl)prop-2-en-1-one]	2.17 nM	> 1 µM	0.0025 µM	73.80%	65.19%	4.62 times	2140 ng·h/mL	2080 ng·h/mL	57.8%	548 ng/mL	0.75 h	1.7 h	0.0054 µM	9.46 µM	16.9 nM	> 1 µM	> 1 µM	> 1 µM	2.11 µM	> 1 µM	IC50 [14]: > 1 µM
C=CC(=O)N1CCC[C@@H](n2nc(-c3ccc(Oc4ccccc4)nc3)c3c(N)ncnc32)C1 [Compound 15a, (R)-1-(3-(4-amino-3-(6-phenoxypyridin-3-yl)-1H-pyrazolo[3,4-d]pyrimidin-1-yl)piperidin-1-yl) prop-2-en-1-one]	2.5 nM	> 1 µM	0.0032 µM	65.01%	61.00%	1.67 times	698 ng·h/mL	624 ng·h/mL	20.9%	292 ng/mL	0.333 h	6.17 h	0.03 µM	6.17 µM	8.16 nM	> 1 µM	> 1 µM	> 1 µM	1.56 µM	> 1 µM	IC50 [14]: > 1 µM
